This note sets out measurements from patent US20190038628A1, “USE OF INHIBITORS OF THE ACTIVITY OR FUNCTION OF PI3K FOR THE TREATMENT OF PRIMARY SJOGREN'S SYNDROME” (Novartis AG, priority 2016, published 2019).

The test system of the experiment is Akt-phosphorylation in IgM+ B cells. Briefly: Time-dependent inhibition of Akt-phosphorylation ex vivo by a single oral dose in rats. The conditions noted are these: 10 mg/kg p.o. single dose; for inhibition at 10 mg/kg: Rattus norvegicus, B-cell, po; for % inhibition of pAkt in IgM+ B cells: rat, individual rats 1-4, 10 mg/kg. Also on record: species or system Lewis rats. The protocol:
All experiments were performed with adult male Lewis rats (LEW/Han/Hsd, Charles River, Germany and LEW/Orl@Rj, Janvier, France), weighing 220-280 g.
The suspension for administration was freshly prepared and stored in the dark at room temperature. 14.8 mg of compound A was suspended in 5.92 ml CMC 0.5% with 0.5% Tween80. The milky, homogeneous suspensions were then applied to the animal. The test substances were administered p.o. at in a volume of 4 ml/kg body weight resulting in an oral dose of 10 mg/kg.
Animals were anaesthetized with isoflurane using a Fluvac airflow system. Whole blood was collected sublingually pre-dose and at 1, 2, 4, 6, 8, 10, 12 and 24 hours post-dose. For pharmacodynamic analysis 100 μl rat blood was collected per time point in Eppendorf tubes with 30 IU sodium heparin (B. Braun, Melsungen, Germany; 5000 I.U./ml). For pharmacokinetic analysis 150 μl rat blood was collected per time point in EDTA coated Eppendorf (Milian cat# TOM-14) tubes.
For ex vivo analysis of blood from drug-treated animals, […] heparinized blood was mixed in 5 ml U-bottom tubes (BD, cat#352063) with […] of RPMI medium (Gibco, cat#31870) immediately after blood collection, and activated with 10 μl of anti-rat IgM/rIL-4 at a final concentration of anti-rat IgM of […] and rIL-4 of 10 ng/ml. Control samples were left unstimulated. Samples were mixed thoroughly and incubated for 10 minutes at 37° C. in the water bath.
After incubation, 2 ml of pre-warmed (37° C. in water bath) BD Phosflow Lyse/Fix buffer was added per tube. Samples were mixed thoroughly and incubated for 20 minutes at 37° C. in the water bath. Then samples were centrifuged at 400 g for 5 minutes. After centrifugation 2 ml of BD Phosflow Perm/wash buffer was added per tube. Samples were mixed thoroughly and incubated at room temperature (RT) in the dark for 10 minutes. Thereafter, the samples were snap-frozen on dry ice and then stored at −80° C. until FACS staining.
For thawing, all samples were incubated for 10 minutes in the water bath at 25° C. After centrifugation at 400 g for 5 minutes the pellets were washed with 2 ml of BD Phosflow Perm/wash buffer and again centrifuged at 400 g for 5 minutes. Supernatants were removed. For analysis of pAkt, samples were stained with PE-labeled anti-rat IgM (BD, cat#553888) to allow gating on B cells in FACS analysis. In addition, samples were stained with Alexa647 conjugated anti-phospho-Akt (Ser473; BD, cat#560343). Staining procedures were performed in a total volume of 100 μl BD Phosflow Perm/wash buffer at RT for 30 minutes in the dark. After incubation, samples were washed with 2 ml of BD Phosflow Perm/wash buffer and centrifuged at 400 g for 5 minutes and the pellets were resuspended in 300 μl BD Stain Buffer (BD, cat#554656). Samples were kept on ice until data were acquired on an LSRII flow cytometer (BD Biosciences) using DIVA software (version 6.1.2). Lymphocytes were gated in the FSC/SSC dot blot according to size and granularity and further analyzed for expression of IgM and phosphorylation of Akt. Data were calculated from dot blots or histograms as percentage of cells positively stained for Akt-phosphorylation within the IgM+ population.
The effects of the drugs ex vivo were expressed as inhibition of Akt-phosphorylation measured by flow cytometry. The percentage inhibition of Akt-phosphorylation was calculated by the following formula: […]
Group of four Lewis rats were treated with a single oral dose of 10 mg/kg of compound A. At indicated time points, 50% rat whole blood was stimulated with anti-rat IgM/rIL-4 and Akt-phosphorylation was determined as described in the Method section.

Each structure is given as a SMILES string. Values joined by “and” are separate entries in the source; they are usually repeats but may differ in a detail not shown here. Equal entries are not always repeated. Where two headings read alike, the source gives them in different places.

For the molecule `CCC(=O)N1CC[C@H](Nc2ncnc3c2CN(c2cnc(OC)c(C(F)(F)F)c2)CC3)C1` [Compound A, 1-{(S)-3-[6-(6-Methoxy-5-trifluoromethyl-pyridin-3-yl)-5,6,7,8-tetrahydro-pyrido[4,3-d]pyrimidin-4-ylamino]-pyrrolidin-1-yl}-propan-1-one], the inhibition at 10 mg/kg runs as follows: (0 h, time 0 h (pre-dose), mean of four animals, read-out: % inhibition of pAkt in IgM+ B cells, Average) 0%; (1 h, time 1 h, individual rats 1-4, read-out: % inhibition of pAkt in IgM+ B cells) 100%; (1 h, time 1 h, mean of four animals, read-out: % inhibition of pAkt in IgM+ B cells, Average) 98.2%; (2 h, time 2 h, individual rats 1-4, read-out: % inhibition of pAkt in IgM+ B cells) 101%; (2 h, time 2 h, mean of four animals, read-out: % inhibition of pAkt in IgM+ B cells, Average) 99.6%; (4 h, time 4 h, mean of four animals, read-out: % inhibition of pAkt in IgM+ B cells, Average) 95.1%. The inhibition at 10 mg/kg worked out at 88.2% (6 h, time 6 h, mean of four animals, read-out: % inhibition of pAkt in IgM+ B cells, Average); 79.4% (8 h, time 8 h, mean of four animals, read-out: % inhibition of pAkt in IgM+ B cells, Average); 69% (10 h, time 10 h, individual rats 1-4, read-out: % inhibition of pAkt in IgM+ B cells); 70.7% (10 h, time 10 h, mean of four animals, read-out: % inhibition of pAkt in IgM+ B cells, Average); 74.3% (12 h, time 12 h, individual rats 1-4, read-out: % inhibition of pAkt in IgM+ B cells); 72.1% (12 h, time 12 h, mean of four animals, read-out: % inhibition of pAkt in IgM+ B cells, Average). The inhibition at 10 mg/kg (24 h, time 24 h, mean of four animals, read-out: % inhibition of pAkt in IgM+ B cells, Average) stood at 30.2%. In addition, the “% inhibition of pAkt in IgM+ B cells” value by setting is: (time 0 h (pre-dose)) −2.0% and 15.7% and 6.9% and −20.6%; (time 1 h) 95.6% and 99.1%; (time 2 h) 97.3% and 101.8%; (time 4 h) 93.8% and 105.3% and 81.4%; (time 6 h) 76.1% and 99.1% and 94.7% and 83.1%; (time 8 h) 83.1% (2×) and 85.8% and 65.4%. Also, the “% inhibition of pAkt in IgM+ B cells” value was 76.9% and 62.7% (time 10 h); 71.6% and 73.4% (time 12 h); 30.8% and 40.6% and 37.0% and 12.2% (time 24 h).
